Where “and” joins values, the source holds several entries; their conditions need not be identical. Equal values may be shown once.
How the values were obtained:
[1] = test system: metastatic or unresectable solid tumour patients; experiment: Haematological toxicity (CTC grading, blood cell counts) in broad phase II study; format: in vivo, human; conditions: for Cycles (%) with anaemia / Cycles (%) with leucopenia / Cycles (%) with neutropenia / Cycles (%) with thrombocytopenia: n = 126 cycles; for Median platelet nadir: 26 patients who received at least three cycles
Excerpt: (§1) British Jourmal of Cancer (1998) 77(1), 139-146 ? 1998 Cancer Research Campaign Broad phase 11 and pharmacokinetic study of methoxy-morpholino doxorubicin (FCE 23762-MMRDX) in non-small-cell lung cancer, renal cancer and other solid tumour patients M Bakker', JP Droz2, AR Hanauske3, J Verweij4, AT van Oosterom5, HJM Groen', MA Pacciarini6, L Domenigoni6, F van Weissenbruch', E Pianezzola6 and EGE de Vries' 'University Hospital Groningen, The Netherlands; 2Centre L6on Berard, Lyon, France; 3Med. […] Patients received a maximum of six cycles. […] Limitations of the clinical value of anthracyclines are their toxicity profile, especially irreversible, dose-related cardiotoxicity, and intrinsic or acquired tumour resis- tance. Various mechanisms play a role in tumour cell resistance to anthracyclines, including overexpression of drug efflux pumps such as P-glycoprotein, decreased levels of the target enzyme topoisomerase II, and an increase in cellular detoxifying capacity (Kaye and Merry, 1985; Deffie et al, 1989; De Jong et al, 1990; Ford and Hait, 1990; Meijer et al, 1990; Zaman et al, 1994). The morpholinyl anthracyclines have been developed in the course of research aimed at identifying new anthracyclines with at least partially novel modes of action in addition to activity against resis- tant tumours (Acton et al, 1984). […] Box 30.001, 9700 RB Groningen, The Netherlands (Figure 1).

[2] = test system: metastatic or unresectable solid tumour patients; experiment: Non-haematological toxicity (CTC grading) in broad phase II study; format: in vivo, human; conditions: for Percentage of cycles with alopecia / Percentage of cycles with diarrhoea / Percentage of cycles with fatigue/malaise / Percentage of cycles with liver toxicity, ALAT / Percentage of cycles with liver toxicity, ASAT / Percentage of cycles with nausea / Percentage of cycles with stomatitis / Percentage of cycles with vomiting / Percentage of cycles with liver toxicity, bilirubin: 132 evaluable cycles
Excerpt: as §1

[3] = test system: left ventricular ejection fraction (LVEF); experiment: Cardiac toxicity: LVEF by MUGA scan or echocardiography; format: in vivo, human
Excerpt: as §1

[4] = test system: NSCLC, renal cell cancer, head and neck cancer, cervix carcinoma, ACUP; experiment: Tumour response according to WHO criteria; format: in vivo, human
Excerpt: as §1

[5] = Plasma pharmacokinetics, cycle 1 (HPLC with fluorescence detection); format: in vivo, human
Excerpt: as §1

[6] = Leucocyte (cellular) drug levels 2 and 24 h after injection; format: in vivo, human; conditions: for Leucocyte MMRDX levels, median: n = 6, per l cell volume
Excerpt: as §1

[7] = Urinary excretion up to 96 h; format: in vivo, human
Excerpt: as §1

[8] = test system: solid tumour patients; parameters: method as in Vasey et al, 1995; conditions: i.v. bolus every 3 weeks, phase I study; ref Vasey et al, 1995; cited from earlier work
[9] = test system: solid tumours in animal models; parameters: method as in Grandi et al, 1990; Ripamonti et al, 1992; conditions: similar activity by intraperitoneal, i.v. or oral route; ref Grandi et al, 1990; Ripamonti et al, 1992; cited from earlier work
[10] = 132 cycles, 48 patients, 1.5 mg m-2 i.v. bolus every 4 weeks
[11] = CTC Grade I, 1.5 mg m-2 i.v. bolus every 4 weeks
[12] = CTC Grade II, 1.5 mg m-2 i.v. bolus every 4 weeks
[13] = CTC Grade III, 1.5 mg m-2 i.v. bolus every 4 weeks
[14] = CTC Grade IV, 1.5 mg m-2 i.v. bolus every 4 weeks
[15] = out of 131 cycles, despite intensive prophylactic antiemetic treatment
[16] = plasma, three-compartmental model, first cycle, 11 patients, 1.5 mg m-2 i.v.

Compound: COc1cccc2c1C(=O)c1c(O)c3c(c(O)c1C2=O)C[C@@](O)(C(=O)CO)C[C@@H]3O[C@H]1C[C@H](N2CCO[C@H](OC)C2)[C@H](O)[C@H](C)O1 [MMRDX, methoxymorpholino-doxorubicin]
- Patients hospitalized for neutropenic fever ([1]; 47 patients evaluable for haematological toxicity): Seven
- CTC grade III/IV neutropenia, % of cycles [1, 10]: 27%
- CTC grade III/IV thrombocytopenia, % of cycles [1, 10]: 12%
- Cycles (%) with anaemia [1, 11]: 37%
- Cycles (%) with leucopenia [1, 11]: 17%
- Cycles (%) with neutropenia [1, 11]: 13%
- Cycles (%) with thrombocytopenia [1, 11]: 11%
- Cycles (%) with anaemia [1, 12]: 31%
- Cycles (%) with leucopenia [1, 12]: 23%
- Cycles (%) with neutropenia [1, 12]: 20%
- Cycles (%) with thrombocytopenia [1, 12]: 6%
- Cycles (%) with anaemia [1, 13]: 5%
- Cycles (%) with leucopenia [1, 13]: 19%
- Cycles (%) with neutropenia [1, 13]: 18%
- Cycles (%) with thrombocytopenia [1, 13]: 6%
- Cycles (%) with anaemia [1, 14]: 0%
- Cycles (%) with leucopenia [1, 14]: 6%
- Cycles (%) with neutropenia [1, 14]: 9%
- Cycles (%) with thrombocytopenia [1, 14]: 6%
- Median (range) nadir haemoglobin ([1]; Cycle 1, n=47): 110(69-147) g l-1
- Median (range) nadir leucocytes ([1]; Cycle 1, n=47): 3.0 (0.1-9.1) x 109 l-1
- Median (range) nadir neutrophils ([1]; Cycle 1, n=47): 1.4 (<0.1-5.8) x 109 l-1
- Median (range) nadir platelets ([1]; Cycle 1, n=47): 178 (8-449) x 109 l-1
- Median (range) nadir platelets ([1]; Cycles 2-6, n=80): 117 (9-372) x 109 l-1
- Median (range) nadir neutrophils ([1]; Cycles 2-6, n=81): 1.7 (< 0.1-6.8) x 109 l-1
- Median (range) nadir haemoglobin ([1]; Cycles 2-6, n=82): 103 (69-153) g l-1
- Median (range) nadir leucocytes ([1]; Cycles 2-6, n=82): 3.0 (0.1-9.8) x 109 l-1
- Median platelet nadir ([1]; cycle 1): 1.78e+11 L⁻¹
- Median platelet nadir ([1]; cycle 2): 1.45e+11 L⁻¹
- Median platelet nadir ([1]; cycle 3): 1.08e+11 L⁻¹
- Median platelet nadir ([1]; cycle 4): 1.06e+11 L⁻¹
- Median platelet nadir ([1]; cycle 5): 9e+10 L⁻¹
- Median platelet nadir ([1]; cycle 6): 1.17e+11 L⁻¹
- Septic death ([1]; day 14 of cycle 2, grade IV neutropenia): one
- Day of platelet nadir ([1]; day of cycle): 22 day and 22 (range 7-36) day
- Median day of neutrophil nadir ([1]; day of cycle): 22 day and 22 (range 6-36) day
- Total number of hospital admissions for haematological toxicity ([1]; excluding admission for blood cell transfusion): eight
- Cycles with dose adjustments for haematological toxicity ([1]; in eight patients): 19%
- Cycles delayed for haematological toxicity ([1]; in vivo): 29%
- Median duration of grade IV neutropenia ([1]; range 1-14): 7 days
- Median time to recovery from platelet nadir to > 100 x 109 l-1 ([1]; range 1-20): 7 days
- Median time to recovery from neutrophil nadir to > 2 x 109 l-1 ([1]; range 2-22): 7 days
- Median duration of grade IV thrombocytopenia ([1]; range 3-19): 11 days
- Late and prolonged nausea > or = grade II, % of cycles ([2]; 132 cycles): 34%
- Vomiting > or = grade II, % of cycles ([2]; 132 cycles): 39%
- Cycles with transient elevation of ALAT ([2]; % of cycles): 71%
- Cycles with transient elevation of ASAT ([2]; % of cycles): 64%
- Percentage of cycles with alopecia ([2]; CTC Grade I): 10%
- Percentage of cycles with diarrhoea ([2]; CTC Grade I): 7%
- Percentage of cycles with fatigue/malaise ([2]; CTC Grade I): 24%
- Percentage of cycles with liver toxicity, ALAT ([2]; CTC Grade I): 37%
- Percentage of cycles with liver toxicity, ASAT ([2]; CTC Grade I): 46%
- Percentage of cycles with nausea ([2]; CTC Grade I): 43%
- Percentage of cycles with stomatitis ([2]; CTC Grade I): 11%
- Percentage of cycles with vomiting ([2]; CTC Grade I): 24%
- Percentage of cycles with alopecia ([2]; CTC Grade II): 1.5%
- Percentage of cycles with diarrhoea ([2]; CTC Grade II): 1%
- Percentage of cycles with fatigue/malaise ([2]; CTC Grade II): 22%
- Percentage of cycles with liver toxicity, ALAT ([2]; CTC Grade II): 27%
- Percentage of cycles with liver toxicity, ASAT ([2]; CTC Grade II): 16%
- Percentage of cycles with liver toxicity, bilirubin ([2]; CTC Grade II): 12%
- Percentage of cycles with nausea ([2]; CTC Grade II): 27%
- Percentage of cycles with stomatitis ([2]; CTC Grade II): 1%
- Percentage of cycles with vomiting ([2]; CTC Grade II): 30%
- Percentage of cycles with diarrhoea ([2]; CTC Grade III): 1%
- Percentage of cycles with fatigue/malaise ([2]; CTC Grade III): 7%
- Percentage of cycles with liver toxicity, ALAT ([2]; CTC Grade III): 7%
- Percentage of cycles with liver toxicity, ASAT ([2]; CTC Grade III): 2%
- Percentage of cycles with liver toxicity, bilirubin ([2]; CTC Grade III): 0%
- Percentage of cycles with nausea ([2]; CTC Grade III): 7%
- Percentage of cycles with stomatitis ([2]; CTC Grade III): 1%
- Percentage of cycles with vomiting ([2]; CTC Grade III): 4%
- Percentage of cycles with diarrhoea ([2]; CTC Grade IV): 0%
- Percentage of cycles with fatigue/malaise ([2]; CTC Grade IV): 5%
- Percentage of cycles with liver toxicity, ALAT ([2]; CTC Grade IV): 0%
- Percentage of cycles with liver toxicity, ASAT ([2]; CTC Grade IV): 0%
- Percentage of cycles with liver toxicity, bilirubin ([2]; CTC Grade IV): 1%
- Percentage of cycles with stomatitis ([2]; CTC Grade IV): 0%
- Percentage of cycles with vomiting ([2]; CTC Grade IV): 5%
- Fatigue grade I-III, % of cycles ([2]; considered as drug-related): 53%
- Alopecia grade I or II, % of cycles ([2]; in vivo): 11%
- Cumulative liver toxicity ([2]; in vivo): No cumulative liver toxicity was observed
- Cycles with CTC toxicity >= grade I of ALAT ([2]; in vivo): 87 cycles
- Cycles with CTC toxicity >= grade I of ASAT ([2]; in vivo): 78 cycles
- Cycles with CTC toxicity >= grade I of bilirubin ([2]; in vivo): 15 cycles
- Cycles with CTC toxicity >= grade III of ALAT ([2]; in vivo): nine
- Cycles with CTC toxicity >= grade III of ASAT ([2]; in vivo): two
- Cycles with CTC toxicity >= grade III of bilirubin ([2]; in vivo): one
- Grade I-II diarrhoea, % of cycles ([2]; in vivo): 8%
- Grade I-II stomatitis, % of cycles ([2]; in vivo): 11%
- Local phlebitis at the injection site, renal toxicity, neurotoxicity ([2]; in vivo): Neither local phlebitis at the injection site nor renal or neuro- toxicity were observed
- Median day of onset of nausea ([2]; in vivo): 3 (range 1-17) day
- Median day of onset of vomiting ([2]; in vivo): 3 (range 1-22) day
- Patients hospitalized for nausea/vomiting ([2]; in vivo): Five
- Nausea and vomiting grade III-IV, % of cycles ([2]; in vivo, iv): 9%
- Day of maximum transient elevations of ASAT and ALAT ([2]; lasting approximately one week): 8 days
- Patients with alopecia grade I or II ([2]; only one grade II): Nine
- Cycles with nausea [2, 15]: 100 cycles
- Cycles with vomiting [2, 15]: 82 cycles
- Transient transaminases elevation grade III/IV, % of cycles ([2]; printed '> grade III/IV', 132 cycles): 7%
- Median hospitalization duration for nausea/vomiting ([2]; range 1-7): 4 days
- Median duration of vomiting ([2]; range 1-28): 3 days
- Median duration of nausea ([2]; range 1-38): 7 days
- Median day of recovery of ASAT to normal values ([2]; range 8-26): 15 days
- Median day of recovery of ALAT to normal values ([2]; range 8-36): 15 days
- Patients with left ventricular ejection fraction reduced >= 15% ([3]; 26 patients evaluable for cardiac toxicity): two
- Decrease in LVEF ([3]; one patient with head and neck cancer, after three cycles, cumulative dose 4.5 mg m-2): 15%
- Cardiotoxicity ([3]; overall conclusion of the study): No clear signs of cardiotoxicity were observed
- Decrease in LVEF ([3]; second patient (NSCLC), echocardiography, after four cycles, cumulative dose 6 mg m-2): 17%
- Efficacy in NSCLC and renal cell cancer ([4]; NSCLC (20 evaluable patients) and renal cell cancer (18 evaluable patients)): ineffective
- Patients with partial response ([4]; NSCLC patient with retroperitoneal metastases, forty-three patients evaluable for tumour response): One
- Patients with progressive disease ([4]; forty-three patients evaluable): Twenty-five
- Patients with stable disease ([4]; forty-three patients evaluable): 17 patients
- Duration of partial response ([4]; one NSCLC patient): 17 weeks
- Terminal half-life relative to epirubicin t1/2,z ([5]; epirubicin value ref Camaggi et al, 1988): 1.6 fold
- Interindividual coefficient of variation ([5]; on the basis of AUC calculated up to infinite time): about 20%
- Plasma clearance, mean ± s.d. ([5]; plasma, 11 patients, 1.5 mg m-2 i.v.): 37.2 +/- 7.3 l h-1 m-2
- AUC0-infinity, mean ± s.d. ([5]; plasma, n = 11, 1.5 mg m-2 i.v., linear trapezoidal rule): 20.4 ± 6.2 ng·h/mL
- Half-life of the first phase ([5]; plasma, three-compartmental model, 11 patients, 1.5 mg m-2 i.v.): 4 min
- t1/2,beta (second phase), mean ± s.d. [5, 16]: 2.4 h
- t1/2,gamma (third phase), mean ± s.d. [5, 16]: 49 h
- Mean leucocyte concentration relative to corresponding plasma concentration ([6]; 2 h after infusion): 650 fold
- Leucocyte MMRDX levels, median ([6]; 2 h after infusion): 414 µg/L
- Mean leucocyte concentration relative to corresponding plasma concentration ([6]; 24 h after infusion): 400 fold
- Leucocyte MMRDX levels, median ([6]; 24 h after infusion): 174 µg/L
- Renal clearance ([7]; in vivo): about 1.8 l h-1
- Urinary excretion of the unchanged drug, % of the administered dose ([7]; urine collection up to 96 h, nine patients): 2%
- Maximum-tolerated dose [8]: 1.5 mg m-2
- Effectiveness in solid tumours in animal models [9]: as effective as doxorubicin
